The values that follow come from ChEMBL document CHEMBL2021891, “STAT-3 inhibitory bisabolanes from Carthamus glaucus” (J Nat Prod, 2012).

The IC50 is the midpoint of a concentration-inhibition curve. Lower therefore signals greater potency in that assay.

Assay [1] has as its target Signal transducer and activator of transcription 3 (Homo sapiens, UniProt P40763). The assay is described as follows: Inhibition of IFNgamma-induced STAT3 activation in human HeLa cells expressing p4xM67-tk-Luc treated 30 mins before […] challenge measured after 6 hrs. Format: cell-based.
A short description of assay [2]: Inhibition of TNFalpha-induced NF-kappaB activation in human HIV-1-LTR-luc 5.1 cells treated 30 mins before TNFalpha challenge measured after 6 hrs.

Chain of Signal transducer and activator of transcription 3 (P40763 whole entry): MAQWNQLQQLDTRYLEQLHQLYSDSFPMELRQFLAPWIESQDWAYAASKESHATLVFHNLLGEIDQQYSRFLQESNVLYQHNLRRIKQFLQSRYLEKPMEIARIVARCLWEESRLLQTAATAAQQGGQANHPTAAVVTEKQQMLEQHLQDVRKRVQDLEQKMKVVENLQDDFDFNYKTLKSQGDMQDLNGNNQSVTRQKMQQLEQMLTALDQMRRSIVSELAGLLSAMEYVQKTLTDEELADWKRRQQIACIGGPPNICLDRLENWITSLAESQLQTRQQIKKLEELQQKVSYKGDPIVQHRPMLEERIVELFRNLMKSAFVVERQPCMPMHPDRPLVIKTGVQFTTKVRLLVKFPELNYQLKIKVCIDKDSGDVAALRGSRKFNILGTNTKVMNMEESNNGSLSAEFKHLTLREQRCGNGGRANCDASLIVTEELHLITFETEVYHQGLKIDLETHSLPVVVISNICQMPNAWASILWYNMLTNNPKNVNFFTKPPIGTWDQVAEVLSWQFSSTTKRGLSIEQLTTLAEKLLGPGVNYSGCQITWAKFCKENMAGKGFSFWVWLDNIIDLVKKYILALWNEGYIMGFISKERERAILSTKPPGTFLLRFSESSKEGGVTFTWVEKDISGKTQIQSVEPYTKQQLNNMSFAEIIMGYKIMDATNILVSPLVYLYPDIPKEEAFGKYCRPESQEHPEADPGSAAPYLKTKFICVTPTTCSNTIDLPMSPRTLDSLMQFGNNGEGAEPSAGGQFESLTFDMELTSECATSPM

As for `CC(C)=CCC[C@](C)(O[C@@H]1O[C@H](C)[C@H](O)[C@H](OC(=O)C=C(C)C)[C@H]1O)[C@@H]1CC=C(C)CC1` (relative stereo), the IC50 in assay [1] is 110 µM; in assay [2], 60 µM.
For `CC(C)=CCC[C@](C)(O[C@@H]1O[C@H](C)[C@H](O)[C@H](O)[C@H]1O)[C@@H]1CC=C(C)CC1` (relative stereo) the same measures were 6.3 µM and 110 µM.
On to `CC(C)=CCC[C@](C)(O)[C@@H]1CC=C(C)CC1` (relative stereo) [LEVOMENOL], for which the half-maximal inhibitory concentration (IC50) in assay [1] is 73 µM; in assay [2], above 220 µM.
